Test system: MSCs
Experiment: Whole genome expression analysis (Illumina microarray) of treated MSCs
Format: cell-based, Human
Protocol: MSCs were seeded in T25 flasks at 5000 cells/cm^2 and allowed to attach overnight in proliferation medium. […] After 48 hours, RNA was isolated as described above. From 500 ng of RNA, cRNA was synthesized using the Illumina TotalPrep RNA amplification Kit (Ambion), according to the manufacturer's protocol and the quality of RNA and cRNA was verified on a Bioanalyzer 2100 (Agilent). Microarrays were performed using Illumina HT-12 v4 expression Beadchips, according to the manufacturer's protocol. Briefly, 750 ng of cRNA was hybridized on the array overnight after which the array was washed and blocked. Then, by addition of streptavidin Cy-3 a fluorescent signal was developed. Arrays were scanned on an Illumina iScan reader and raw intensity values were background corrected in GenomeStudio (Illumina). Further data processing and statistical testing were performed with R and Bioconductor statistical software (www.bioconductor.org), using package lumi. Raw intensity values were transformed using variance stabilization and a quantile normalization was performed. A linear modelling approach with empirical Bayesian methods, as implemented in Limma package (54), was applied for differential expression analysis of the resulting probe-level expression values. A gene list, containing only those genes with an absolute 1.5-fold change between different treatments, was uploaded to Ingenuity Pathway Analysis (IPA) software and used for core analysis. Pathways or networks with a p-value of 0.05 were considered statistically significant.

SMILES: c1cnc2c(c1)ccc1cccnc12 [PHE, 1, 10-phenanthroline]
- logFC(D142_PHE - D142_BAS) IL6 (ProbeID ILMN_1699651): -2,31
- logFC(D142_PHE - D142_BAS) RRAGD (ProbeID ILMN_1699772): 3,13
- logFC(D142_PHE - D142_BAS) TSPAN18 (ProbeID ILMN_1699980): -2,03
- logFC(D142_PHE - D142_BAS) QPRT (ProbeID ILMN_1700268, PHE vs BAS): -2,59
- logFC(D142_PHE - D142_BAS) LPAR1 (ProbeID ILMN_1701441, PHE vs BAS): -2,35
- logFC(D142_PHE - D142_BAS) SULF1 (ProbeID ILMN_1702363, PHE vs BAS): -2,90
- logFC(D142_PHE - D142_BAS) AXUD1 (ProbeID ILMN_1703123): 2,51
- logFC(D142_PHE - D142_BAS) FEM1C (ProbeID ILMN_1703330): 2,53
- logFC(D142_PHE - D142_BAS) FHL3 (ProbeID ILMN_1703558): -2,34
- logFC(D142_PHE - D142_BAS) TNFRSF19 (ProbeID ILMN_1704154): -2,24
- logFC(D142_PHE - D142_BAS) SLC6A10P (ProbeID ILMN_1704446): 3,23
- logFC(D142_PHE - D142_BAS) PTGR1 (ProbeID ILMN_1704531): 2,56
- logFC(D142_PHE - D142_BAS) TGM2 (ProbeID ILMN_1705750, PHE vs BAS): -2,98
- logFC(D142_PHE - D142_BAS) DSE (ProbeID ILMN_1706498): -2,19
- logFC(D142_PHE - D142_BAS) TFPI (ProbeID ILMN_1707124): 2,04
- logFC(D142_PHE - D142_BAS) LRIG1 (ProbeID ILMN_1707342): 2,82
- logFC(D142_PHE - D142_BAS) ANGPTL4 (ProbeID ILMN_1707727): 7,28
- logFC(D142_PHE - D142_BAS) CNN2 (ProbeID ILMN_1708486): -2,15
- logFC(D142_PHE - D142_BAS) ACAT2 (ProbeID ILMN_1708672): -2,03
- logFC(D142_PHE - D142_BAS) ADM (ProbeID ILMN_1708934): 2,48
- logFC(D142_PHE - D142_BAS) C9orf46 (ProbeID ILMN_1709043): -2,08
- logFC(D142_PHE - D142_BAS) EMILIN1 (ProbeID ILMN_1711439): -2,30
- logFC(D142_PHE - D142_BAS) FAM20C (ProbeID ILMN_1712684): -2,12
- logFC(D142_PHE - D142_BAS) WISP1 (ProbeID ILMN_1713499): -2,11
- logFC(D142_PHE - D142_BAS) UBE2C (ProbeID ILMN_1714730): -2,16
- logFC(D142_PHE - D142_BAS) LOC346887 (ProbeID ILMN_1714741): 2,46
- logFC(D142_PHE - D142_BAS) NNMT (ProbeID ILMN_1715508, PHE vs BAS): -2,62
- logFC(D142_PHE - D142_BAS) ENAH (ProbeID ILMN_1716552): -2,13
- logFC(D142_PHE - D142_BAS) NGF (ProbeID ILMN_1716608): 2,06
- logFC(D142_PHE - D142_BAS) TPM1 (ProbeID ILMN_1716687): -2,28
- logFC(D142_PHE - D142_BAS) MYOM2 (ProbeID ILMN_1716733): 2,05
- logFC(D142_PHE - D142_BAS) TXNRD1 (ProbeID ILMN_1717056): 2,75
- logFC(D142_PHE - D142_BAS) C5orf46 (ProbeID ILMN_1718866): 3,15
- logFC(D142_PHE - D142_BAS) BNIP3L (ProbeID ILMN_1718961): 2,88
- logFC(D142_PHE - D142_BAS) FH (ProbeID ILMN_1719392, PHE vs BAS): -2,67
- logFC(D142_PHE - D142_BAS) TNC (ProbeID ILMN_1719759, PHE vs BAS): -3,17
- logFC(D142_PHE - D142_BAS) SLC7A5 (ProbeID ILMN_1720373): 2,69
- logFC(D142_PHE - D142_BAS) CA12 (ProbeID ILMN_1720998): 2,41
- logFC(D142_PHE - D142_BAS) JMJD1A (ProbeID ILMN_1722532): 3,45
- logFC(D142_PHE - D142_BAS) HK2 (ProbeID ILMN_1723486): 2,90
- logFC(D142_PHE - D142_BAS) IFI44L (ProbeID ILMN_1723912): -2,15
- logFC(D142_PHE - D142_BAS) BNIP3 (ProbeID ILMN_1724658): 3,47
- logFC(D142_PHE - D142_BAS) RIOK3 (ProbeID ILMN_1724700): 2,40
- logFC(D142_PHE - D142_BAS) CTHRC1 (ProbeID ILMN_1725090, PHE vs BAS): -2,95
- logFC(D142_PHE - D142_BAS) CA9 (ProbeID ILMN_1725139): 3,69
- logFC(D142_PHE - D142_BAS) GSTK1 (ProbeID ILMN_1725241): -2,02
- logFC(D142_PHE - D142_BAS) SLC3A2 (ProbeID ILMN_1726456): 2,24
- logFC(D142_PHE - D142_BAS) CD248 (ProbeID ILMN_1726589): -2,13
- logFC(D142_PHE - D142_BAS) OLFML3 (ProbeID ILMN_1727532, PHE vs BAS): -3,25
- logFC(D142_PHE - D142_BAS) AKR1A1 (ProbeID ILMN_1728047): -2,21
- logFC(D142_PHE - D142_BAS) PRC1 (ProbeID ILMN_1728934, PHE vs BAS): -2,53
- logFC(D142_PHE - D142_BAS) COL5A2 (ProbeID ILMN_1729117): -2,21
- logFC(D142_PHE - D142_BAS) C1QTNF6 (ProbeID ILMN_1729288): -2,08
- logFC(D142_PHE - D142_BAS) LEPR (ProbeID ILMN_1731966): -2,03
- logFC(D142_PHE - D142_BAS) SHB (ProbeID ILMN_1732612): 2,06
- logFC(D142_PHE - D142_BAS) STEAP1 (ProbeID ILMN_1733094, PHE vs BAS): -2,54
- logFC(D142_PHE - D142_BAS) RASSF7 (ProbeID ILMN_1733110): 2,83
- logFC(D142_PHE - D142_BAS) COL12A1 (ProbeID ILMN_1733756, PHE vs BAS): -3,95
- logFC(D142_PHE - D142_BAS) PPP1R3C (ProbeID ILMN_1736670): 2,44
- logFC(D142_PHE - D142_BAS) TMEM119 (ProbeID ILMN_1738116, PHE vs BAS): -4,96
- logFC(D142_PHE - D142_BAS) SLC1A3 (ProbeID ILMN_1738552): -2,18
- logFC(D142_PHE - D142_BAS) PLAT (ProbeID ILMN_1738742): 2,16
- logFC(D142_PHE - D142_BAS) PRRX1 (ProbeID ILMN_1739496, PHE vs BAS): -2,36
- logFC(D142_PHE - D142_BAS) FAM117B (ProbeID ILMN_1739942): 2,48
- logFC(D142_PHE - D142_BAS) CHSY3 (ProbeID ILMN_1740407, PHE vs BAS): -2,57
- logFC(D142_PHE - D142_BAS) ALDOA (ProbeID ILMN_1741148): 2,28
- logFC(D142_PHE - D142_BAS) RFX5 (ProbeID ILMN_1741200): -2,04
- logFC(D142_PHE - D142_BAS) PRICKLE1 (ProbeID ILMN_1741356, PHE vs BAS): -2,37
- logFC(D142_PHE - D142_BAS) C1QTNF5 (ProbeID ILMN_1744487, PHE vs BAS): -2,59
- logFC(D142_PHE - D142_BAS) ERO1L (ProbeID ILMN_1744963): 3,84
- logFC(D142_PHE - D142_BAS) CEP55 (ProbeID ILMN_1747016): -2,01
- logFC(D142_PHE - D142_BAS) PSMB8 (ProbeID ILMN_1747195): -2,24
- logFC(D142_PHE - D142_BAS) CDKN2D (ProbeID ILMN_1748883): 2,14
- logFC(D142_PHE - D142_BAS) MZF1 (ProbeID ILMN_1749838): 2,45
- logFC(D142_PHE - D142_BAS) EGLN1 (ProbeID ILMN_1749892): 2,72
- logFC(D142_PHE - D142_BAS) IGFBP5 (ProbeID ILMN_1750324): 2,34
- logFC(D142_PHE - D142_BAS) STXBP6 (ProbeID ILMN_1750912): 2,42
- logFC(D142_PHE - D142_BAS) HIST1H4H (ProbeID ILMN_1751120): 2,86
- logFC(D142_PHE - D142_BAS) C20orf46 (ProbeID ILMN_1751228): 2,17
- logFC(D142_PHE - D142_BAS) P2RY11 (ProbeID ILMN_1752226): 2,23
- logFC(D142_PHE - D142_BAS) FAM13A (ProbeID ILMN_1752510): 3,25
- logFC(D142_PHE - D142_BAS) LMCD1 (ProbeID ILMN_1754969, PHE vs BAS): -2,67
- logFC(D142_PHE - D142_BAS) PGK1 (ProbeID ILMN_1755749): 2,85
- logFC(D142_PHE - D142_BAS) ALDOC (ProbeID ILMN_1755974): 2,83
- logFC(D142_PHE - D142_BAS) ANKRD37 (ProbeID ILMN_1756417): 4,25
- logFC(D142_PHE - D142_BAS) COQ2 (ProbeID ILMN_1756572, PHE vs BAS): -2,49
- logFC(D142_PHE - D142_BAS) NDUFA4L2 (ProbeID ILMN_1756573): 5,61
- logFC(D142_PHE - D142_BAS) MUC1 (ProbeID ILMN_1756992): 2,56
- logFC(D142_PHE - D142_BAS) HCFC1R1 (ProbeID ILMN_1757877): 2,05
- logFC(D142_PHE - D142_BAS) STC1 (ProbeID ILMN_1758164): 4,35
- logFC(D142_PHE - D142_BAS) HIST1H2BD (ProbeID ILMN_1758623): 3,29
- logFC(D142_PHE - D142_BAS) IDS (ProbeID ILMN_1758626): 2,05
- logFC(D142_PHE - D142_BAS) FAM107B (ProbeID ILMN_1758672): 2,44
